This assay relates to CD86 on rat B cells. As to the kind of experiment: Rat B cell activation in whole blood (CD86 upregulation after anti-IgM and IL-4). It is filed as cell-based. The following applies: anti-IgM + rIL-4 stimulation, CD86 on CD45RA+ B cells, read-out: RWB/IC50 CD86. The procedure:
PI3Kδ has been recognized to modulate B cell function when cells are stimulated through the B cell receptor (BCR) (Okkenhaug et al. Science 297:1031 (2002). For assessing the inhibitory property of compounds on B cell activation, the upregulation of activation markers CD86 on rat B cells derived from whole blood is measured after stimulation with anti-IgM and recombinant IL-4. The CD86 molecule (also known as B7-2) is primarily expressed on antigen-presenting cells, including B cells. Resting B cells express CD86 at low levels, but upregulate it following stimulation of e.g. the BCR or IL-4 receptor. CD86 on a B cell interacts with CD28 on T cells. This interaction is required for optimal T cell activation and for the generation of an optimal IgG1 response (Carreno et al. Annu Rev Immunol. 20:29 (2002)).
Whole blood was collected from the abdominal aorta adult male Lewis rats (LEW/HanHsd) oby using a 10 ml syringe with hypodermic needle pre-coated with sodium heparin. Blood was transferred into 50 ml Falcon tubes and the anticoagulant concentration was adjusted to 100 U/ml.
For assessment of the in vitro effects of immunosuppressive drugs, heparinized blood was prediluted to 50% with medium. As medium served DMEM high glucose (Animed cat#1-26F01-I) supplemented with 100 U/ml penicillin, […], 2 mM L-glutamin, 50 mg/ml dextran 40 and 5% fetal calf serum (FCS, Fetaclone I, Gibco #10270-106). Then, 190 μl prediluted blood was spiked with 10 μl of pre-diluted test compound in 96 well U-bottomed microtiter plates (Nunc) resulting in a 3-fold serial dilution with a concentration range from 20 to 0.0003 μM. Control wells were pretreated with DMSO to obtain a final concentration of 0.5% DMSO. Cultures were set up in duplicates, mixed well by agitation on a plate shaker (Heidolph Titramax 101; 30 sec, speed 900), pipetting up and down and agitated on the plate shaker again. Cultures were incubated at 37° C., 5% CO2 for 1 hr. Then, 20 μl of polyclonal goat anti-rat IgM Ab (Serotec, cat#302001) and 10 μl of diluted recombinant rIL-4 (Immunotools #340085) were added to obtain final concentrations of 30 μg/ml and 5 ng/ml, respectively. Plates were mixed by agitation on a plate shaker as above and incubated for 24 hrs at 37° C., 5% CO2.
After incubation, 15 μl of a 25 mM EDTA solution was added per well and shaken for 15 min to detach adherent cells. For analysis of surface activation markers, samples were then stained with PE-Cy5-labeled anti-ratCD45RA (BD cat#557015) to allow gating on B cells in FACS analysis. In addition, samples were stained with PE-labeled anti-rat CD86 (BD cat#551396). All staining procedures were performed at RT for 30 min in the dark. After incubation, samples were transferred to 96-deep well V-bottomed microtiter plates (Corning #396096) containing 2 ml/well of BD Lysing Solution (BD #349202). After lysis of erythrocytes samples were washed with 2 ml of CeIIWASH (BD #349524). Data was acquired on an LSRII or FACScalibur flow cytometer (BD Biosciences) using Cellquest Plus or DIVA (version 6.1.1) software, respectively. Lymphocytes were gated in the FSC/SSC dot blot according to size and granularity and further analyzed for expression of CD45RA and activation markers. Data were calculated from dot blots or histograms as percentage of cells positively stained for activation markers within the CD45RA+ population.
The percentage inhibition of B cell activation after exposure to drug was calculated by the following formula: […]
ORIGIN 7 software (Origin Lab Corporation, Northampton, Mass.) was used for non-linear regression curve fitting. The drug concentration resulting in 50% inhibition (IC50) was obtained by fitting the Hill equation to inhibition data.
On to `COc1ncc(-c2ccnc3ccc(O[C@H]4CCN(C(=O)C5CCS(=O)(=O)CC5)C4)cc23)cc1C` [Example A15, (1,1-Dioxo-hexahydro-1lambda*6*-thiopyran-4-yl)-{(S)-3-[4-(6-methoxy-5-methyl-pyridin-3-yl)-quinolin-6-yloxy]-pyrrolidin-1-yl}-methanone], for which the IC50 came out at 101 nM.
With `COc1ncc(-c2ccnc3ccc(O[C@H]4CCN(C(=O)C5CCS(=O)(=O)CC5)C4)cc23)cc1Cl` [Example A1, {(S)-3-[4-(5-Chloro-6-methoxy-pyridin-3-yl)-quinolin-6-yloxy]-pyrrolidin-1-yl}-(1,1-dioxo-hexahydro-1lambda*6*-thiopyran-4-yl)-methanone], the IC50 worked out at 73 nM.
Next, `Cc1cc(-c2ccnc3cc(F)c(O[C@H]4CCN(C(=O)C5CCOCC5)C4)cc23)cnc1S(C)(=O)=O` [Example C2, {(S)-3-[7-Fluoro-4-(6-methanesulfonyl-5-methyl-pyridin-3-yl)-quinolin-6-yloxy]-pyrrolidin-1-yl}-(tetrahydro-pyran-4-yl)-methanone]: 46.2 nM; `COc1ncc(-c2ccnc3ccc(O[C@H]4CCN(C(=O)C5CCS(=O)(=O)CC5)C4)cc23)cc1C(F)F` [Example A6, {(S)-3-[4-(5-Difluoromethyl-6-methoxy-pyridin-3-yl)-quinolin-6-yloxy]-pyrrolidin-1-yl}-(1,1-dioxo-hexahydro-1lambda*6*-thiopyran-4-yl)-methanone]: 43 nM.
As for `COc1ncc(-c2ccnc3ccc(O[C@H]4CCN(C(=O)[C@@H]5CCN(C(C)=O)C5)C4)cc23)cc1C(F)F` [Example A24, 1-((R)-3-{(S)-3-[4-(5-Difluoromethyl-6-methoxy-pyridin-3-yl)-quinolin-6-yloxy]-pyrrolidine-1-carbonyl}-pyrrolidin-1-yl)-ethanone], the IC50 was determined as 47 nM.
Next, `COc1ncc(-c2ccnc3cc(F)c(O[C@H]4CCN(C(=O)C5CCS(=O)(=O)CC5)C4)cc23)cc1C` [Example C1, (1,1-Dioxo-hexahydro-1lambda*6*-thiopyran-4-yl)-{(S)-3-[7-fluoro-4-(6-methoxy-5-methyl-pyridin-3-yl)-quinolin-6-yloxy]-pyrrolidin-1-yl}-methanone]: 86.5 nM.
As to `COc1ncc(-c2ccnc3ccc(O[C@H]4CCN(C(=O)[C@@H]5CCN(C(C)=O)C5)C4)cc23)cc1C` [Example A10, 1-((R)-3-{(S)-3-[4-(6-Methoxy-5-methyl-pyridin-3-yl)-quinolin-6-yloxy]-pyrrolidine-1-carbonyl}-pyrrolidin-1-yl)-ethanone], the IC50 was determined as 59 nM.
Next, `COc1ncc(-c2ccnc3ccc(O[C@H]4CCN(C(=O)C5CCS(=O)(=O)CC5)C4)c(C)c23)cc1C` [Example B3, (1,1-Dioxo-hexahydro-1lambda*6*-thiopyran-4-yl)-{(S)-3-[4-(6-methoxy-5-methyl-pyridin-3-yl)-5-methyl-quinolin-6-yloxy]-pyrrolidin-1-yl}-methanone]: 107 nM; `CCC(=O)N1CC[C@H](Oc2ccc3nccc(-c4cnc(S(C)(=O)=O)c(C)c4)c3c2)C1` [Example A25, 1-{(S)-3-[4-(6-Methanesulfonyl-5-methyl-pyridin-3-yl)-quinolin-6-yloxy]-pyrrolidin-1-yl}-propan-1-one]: 443 nM.
As for `COc1ncc(-c2ccnc3ccc(O[C@H]4CCN(C(=O)[C@@H]5CCN(C(C)=O)C5)C4)c(C)c23)cc1C(F)F` [Example B1, 1-((R)-3-{(S)-3-[4-(5-Difluoromethyl-6-methoxy-pyridin-3-yl)-5-methylquinolin-6-yloxy]-pyrrolidine-1-carbonyl}-pyrrolidin-1-yl)-ethanone], the IC50 was 78 nM.

The values are drawn from patent US20150148377A1, “Quinoline Derivatives” (NOVARTIS AG, priority 2011, published 2015).
